Data from patent publication US8680137B2, “Agents and methods for treating ischemic and other diseases” (Nono Inc., priority 2009, dated 2014).
Entries after “also recorded” stand apart in the source; their conditions may differ.

Legend:
[1] = test system: retinal ganglion cells (RGCs); experiment: OGD in cultured primary retinal ganglion cells, PI fluorescence; format: cell-based, rat; details: 5 μM, 24 hours after 3 hour OGD
Source text: Acute and chronic retinal ischemia are major causes of blindness. Retinal damage from glaucoma, also termed “slow excitotoxicity” afflicts millions of people each year and is the second leading cause of blindness worldwide (after cataracts). Diabetic retinopathy is also very common, afflicting about 40% of diabetics and, while less commonly producing complete blindness, is a leading cause of visual impairment. The retina is an extension of the CNS, and was the first organ in which excitotoxicity was described. This invention discloses TPRM7 antagonists that can inhibit anoxic retinal damage. To examine this, we cultured primary retinal ganglion cells (RGCs) and organotypic whole retinas from neonatal rat pups by standard methods and exposed them to OGD (1 or 3 hours). […] This underscores our earlier discussion that inhibiting TRPM7 is a ubiquitous mechanism for the reduction of ischemic damage.

[2] = test system: MCF-7 breast cancer cells; experiment: Cancer cell proliferation, MCF-7; format: cell-based; details: for proliferation: MCF-7, FIG. 80; for Demonstrated Reduction of Proliferation at or below 10 μM Inhibitor concentration: MCF-7, >20% inhibition at 48-96 hours, MTT, SRB, luminescence or BrDU
Procedure: (§1) To determine the breadth of efficacy in cancers, we examined the efficacy of a range of TRPM7 inhibitors for their ability to inhibit cell proliferation in cancer cell lines. Representative figures are included as examples.
(§2) Cells (Table 1) were grown to 70% confluency, trypsinized, counted, and seeded in 96-well flat-bottom plates at a final concentration of 2.5×10^3-5.0×10^3 cells/well in growth media containing 5% FBS (Day 0). Other well sizes and cell densities were used successfully as well. Cells were allowed to incubate in growth media for 24 hours to allow for maximum adhesion. Treatment with the test agent began on Day 1 and continued for 72 hours either with or without retreatment. At the 72 hour time point, viable cell numbers are quantified by the CellTiter-Glo® cell viability assay as described above, or using standard MTT, SRB or BrDU assays. Experiments were repeated at least twice with the same concentrations to determine growth inhibitory activity.
(§3) Data Collection—For the cell proliferation studies, data from each experiment was collected and expressed as % Cell Growth using the following calculation: % Cell Growth=(ftest/fvehicle)×100 Where ftest is the luminescent signal of the tested sample, and fvehicle is the luminescence of the vehicle in which the drug is dissolved (or appropriate measure for the other viability/proliferation measures). Dose response graphs and IC50 values were generated using standard software using the following variable slope equation: […]

[3] = test system: MDA-MB231 breast cancer cells; experiment: Cancer cell proliferation, MDA-MB231; format: cell-based; details: MDA-MB231, FIG. 80
Procedure: as §1, §2
as §3, with “measures).” for “measures). Dose response graphs and IC50 values were generated using standard software using the following variable slope equation:”

[4] = test system: B16F1 melanoma cells; experiment: Cancer cell proliferation, B16F1; format: cell-based, mouse; details: B16F1, FIG. 81
Procedure: as §1, §2
as §3, with “measures).” for “measures). Dose response graphs and IC50 values were generated using standard software using the following variable slope equation:”

[5] = test system: U2OS osteosarcoma; experiment: Cancer cell proliferation, U2OS; format: cell-based; details: >20% inhibition at 48-96 hours, MTT, SRB, luminescence or BrDU
Procedure: as §1, §2
as §3, with “measures).” for “measures). Dose response graphs and IC50 values were generated using standard software using the following variable slope equation:”

[6] = test system: DMS53 Lung cancer; experiment: Cancer cell proliferation, DMS53; format: cell-based; details: >20% inhibition at 48-96 hours, MTT, SRB, luminescence or BrDU
Procedure: as §1, §2
as §3, with “measures).” for “measures). Dose response graphs and IC50 values were generated using standard software using the following variable slope equation:”

[7] = test system: NIH3T3 fibroblasts; experiment: Toxicity on NIH3T3 fibroblast cells, PI uptake after 72 hours; format: cell-based; details: concentrations that reduce proliferation of cancerous cells
Procedure: To differentiate between an anti-proliferative effect of the TRPM7 inhibitors and cellular toxicity, the compounds were added to various ‘non-cancerous’ cell lines at the same concentrations and the percentage of PI uptake was measured after 72 hours.

[8] = test system: voltage-sensitive Na+ currents; experiment: Voltage-sensitive Na+ currents in cultured cortical neurons; format: cell-based; details: at concentrations sufficient to inhibit TRPM7
Procedure: (§4) To examine selectivity of a subset of these TRPM7 inhibitors, experiments were performed to determine whether TRPM7 antagonists cross-react with other ionic channels and receptors. […] From a therapeutic perspective, knowledge of cross-reactivity of candidate drugs could shed light on other ischemic mechanisms and raise awareness of potential side effects. M21 has no effect on voltage-sensitive Na+, and Ca2+ currents in cultured cortical neurons […] TRPM7-expressing HEK293 cells, but inhibits K+ currents by about 20% at membrane potentials of −10 mV. M21 had no effect on agonist-induced Ca2+ changes in HEK293 cells transfected with constructs for TRPM2, TRPM4, TRPM6, TRPV1, TRPC2 and TRPA1. M21 also has no effect on NMDA and AMPA receptor currents in cultured neurons. […] Similar experiments were performed with other TRPM7 inhibitors including M5 and M11.

[9] = test system: voltage-sensitive Ca2+ currents; experiment: Voltage-sensitive Ca2+ currents in cultured cortical neurons; format: cell-based; details: at concentrations sufficient to inhibit TRPM7
Procedure: as §4

[10] = test system: K+ currents; experiment: K+ currents in cultured cortical neurons; format: cell-based
Procedure: as §4

[11] = test system: mixed retinal cell cultures; experiment: OGD in dissociated mixed rat retinal cultures; format: cell-based
Procedure: The ability of TRPM7 inhibitors to protect other types of cell cultures following exposure to anoxia, including non-neuronal cell cultures, has also been tested. In general, cultures of growing cells are exposed to a 1-6 hour period of anoxia, followed by addition of a TRPM7 at a range of concentrations upon removal from anoxic conditions. […] This implies that TRPM7 inhibitors may be useful both as a treatment for anoxic damage to patients presenting symptoms of a disorder associated with anoxic damage, or as a preventative measure. Such preventative measures can be chronic, such as treatment to protect against damage from heart attacks or strokes, or acute, to be given prior to or during surgical procedures, which may include but not be limited to procedures that involve endovascular invasion and have the possibility of dislodging material that may block blood flow through arteries. […]

[12] = target: T1, TRPM2 (Homo sapiens, UniProt O94759); experiment: Agonist-induced Ca2+ changes in HEK293 cells transfected with TRPM2; format: cell-based
T1 construct: expressed in transfected cells; host or cells: HEK293
T1 sequence (O94759 whole entry): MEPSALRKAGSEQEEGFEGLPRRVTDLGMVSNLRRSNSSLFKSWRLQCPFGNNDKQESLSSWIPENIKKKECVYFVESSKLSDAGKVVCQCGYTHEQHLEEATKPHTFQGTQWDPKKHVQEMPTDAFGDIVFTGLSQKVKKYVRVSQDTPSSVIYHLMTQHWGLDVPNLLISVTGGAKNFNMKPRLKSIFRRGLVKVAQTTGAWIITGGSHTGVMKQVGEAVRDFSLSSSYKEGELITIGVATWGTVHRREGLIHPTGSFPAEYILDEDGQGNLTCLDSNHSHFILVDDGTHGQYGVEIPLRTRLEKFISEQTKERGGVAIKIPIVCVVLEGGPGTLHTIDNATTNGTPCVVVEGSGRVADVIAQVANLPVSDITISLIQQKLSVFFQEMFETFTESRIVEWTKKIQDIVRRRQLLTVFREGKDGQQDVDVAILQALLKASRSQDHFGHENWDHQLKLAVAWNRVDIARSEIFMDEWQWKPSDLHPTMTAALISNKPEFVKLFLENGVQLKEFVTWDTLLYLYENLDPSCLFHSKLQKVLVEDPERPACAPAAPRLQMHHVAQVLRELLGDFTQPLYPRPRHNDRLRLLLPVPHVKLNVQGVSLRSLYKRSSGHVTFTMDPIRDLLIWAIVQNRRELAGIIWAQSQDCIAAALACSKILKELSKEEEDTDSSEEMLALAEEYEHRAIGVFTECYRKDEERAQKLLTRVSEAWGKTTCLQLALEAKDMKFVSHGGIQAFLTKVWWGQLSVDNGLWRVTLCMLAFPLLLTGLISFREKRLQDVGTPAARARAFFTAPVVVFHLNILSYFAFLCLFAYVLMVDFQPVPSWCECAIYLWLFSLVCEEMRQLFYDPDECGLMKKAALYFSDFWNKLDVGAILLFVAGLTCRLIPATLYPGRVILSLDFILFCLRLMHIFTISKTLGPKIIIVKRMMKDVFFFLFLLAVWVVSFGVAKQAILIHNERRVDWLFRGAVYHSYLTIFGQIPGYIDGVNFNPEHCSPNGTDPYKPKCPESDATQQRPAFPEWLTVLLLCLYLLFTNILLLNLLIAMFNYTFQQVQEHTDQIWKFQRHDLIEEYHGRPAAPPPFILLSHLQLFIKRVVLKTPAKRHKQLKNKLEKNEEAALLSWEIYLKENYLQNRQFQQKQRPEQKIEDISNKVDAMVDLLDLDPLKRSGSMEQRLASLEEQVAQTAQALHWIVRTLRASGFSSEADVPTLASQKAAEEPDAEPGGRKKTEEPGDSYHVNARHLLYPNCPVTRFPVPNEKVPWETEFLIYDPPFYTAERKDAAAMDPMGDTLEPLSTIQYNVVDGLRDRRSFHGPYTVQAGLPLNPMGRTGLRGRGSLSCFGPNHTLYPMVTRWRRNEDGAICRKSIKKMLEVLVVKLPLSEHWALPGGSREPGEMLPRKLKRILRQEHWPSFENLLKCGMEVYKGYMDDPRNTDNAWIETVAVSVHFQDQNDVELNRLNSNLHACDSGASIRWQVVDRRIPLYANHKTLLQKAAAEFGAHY
Procedure: as §4

[13] = test system: raised intraocular pressure (IOP); experiment: Raised intraocular pressure model of acute glaucoma in rats; format: in vivo, rat; details: intraocular injection, 80 mm Hg 1 hour, 7-14 days
Procedure: We next tested whether direct intraocular injection of M21 could reduce retinal damage evoked by raising the intraocular pressure (IOP) in rats (80 mm Hg 1 hour; Morrison J C. Elevated intraocular pressure and optic nerve injury models in the rat. J Glaucoma. 2005; 14:315-317). M21 was microinjected into the vitreous humor directly, to control for any blood-brain-barrier penetration issues. […] The compounds of this invention can be used for the treatment of retinal disorders. Preferably these compounds are delivered orally, as an injection (intravenous, intraocular), or administered topically. This model of glaucoma can be used to assess the different routes of administration for these compounds

Structure (SMILES) | cytoprotection after OGD compared with U0126 or NA-1 [1] | proliferation [2] | Demonstrated Reduction of Proliferation at or below 10 μM Inhibitor concentration [2] | proliferation [3] | proliferation [4] | Demonstrated Reduction of Proliferation at or below 10 μM Inhibitor concentration [5] | Demonstrated Reduction of Proliferation at or below 10 μM Inhibitor concentration [6] | toxicity (PI uptake) [7] | effect on voltage-sensitive Na+ currents [8] | effect on voltage-sensitive Ca2+ currents [9] | effect on potassium currents [10] | survival following exposure to OGD [11] | inhibition of K+ currents ([10]; membrane potentials of −10 mV) | effect on agonist-induced Ca2+ changes [12] | retinal damage (histology) [13]
COc1cc2c(cc1OC)C(c1sc3ccccc3c1Cl)=NCC2 [Compound M6] | more protective | reduce proliferation | MCF-7 | reduce proliferation | reduce the proliferation | U2OS osteosarcoma | DMS53 Lung cancer | not toxic; also recorded: do not show toxicity |  |  |  |  |  |  | 
O=C(Nc1ccc(F)cc1)C(Sc1ccc(Cl)cc1)c1ccccc1 (centres unmarked) [Compound M11] |  | reduce proliferation | MCF-7 | reduce proliferation | reduce the proliferation | U2OS osteosarcoma | DMS53 Lung cancer | do not show toxicity | did not affect | did not affect | slight inhibition | promote survival |  |  | 
Cc1c(Cc2ccc(Cl)c(Cl)c2)c(=O)oc2cc(O)ccc12 [Compound M21] | more protective |  |  |  |  |  |  |  | no effect | no effect |  | promote survival | about 20% | no effect | significant reduction in retinal damage
